Results: the supplement of paper PMC10307832

How the values were obtained:
Assay in all cases: relative viability (nuclei count vs DMSO), 5 days (fraction); higher = more cells survive
BMX-IN-1 + Lapatinib = compound: C=CC(=O)Nc1cc(-n2c(=O)ccc3cnc4ccc(-c5ccc(NS(C)(=O)=O)cc5)cc4c32)ccc1C [BMX-IN-1] + CS(=O)(=O)CCNCc1ccc(-c2ccc3ncnc(Nc4ccc(OCc5cccc(F)c5)c(Cl)c4)c3c2)o1 [Lapatinib] (partner 2 µM)
In short: (§1)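 Nuclei were stained with Hoechst during a one-step fixation (final 0.05% Triton X-100, 1% formaldehyde, 1 ug/ml Hoechst) carried out 5 days after dosing, then counted on 4× images. The cells, lung cancer lines in 1536-well plates, had been dosed by pin tool the day after seeding with one drug alone or a fixed anchor-drug dose plus five library-drug doses (not always all listed) in √10 steps. Relative viability is the nuclei count in treated wells divided by that in vehicle wells, and each value is the median of duplicate plates.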

Ibrutinib + Pictilisib = compound: C=CC(=O)N1CCC[C@@H](n2nc(-c3ccc(Oc4ccccc4)cc3)c3c(N)ncnc32)C1 [Ibrutinib] + CS(=O)(=O)N1CCN(Cc2cc3nc(-c4cccc5[nH]ncc45)nc(N4CCOCC4)c3s2)CC1 [Pictilisib] (partner 1 µM)
In short: as §1

Ibrutinib + Crizotinib = compound: C=CC(=O)N1CCC[C@@H](n2nc(-c3ccc(Oc4ccccc4)cc3)c3c(N)ncnc32)C1 [Ibrutinib] + C[C@@H](Oc1cc(-c2cnn(C3CCNCC3)c2)cnc1N)c1c(Cl)ccc(F)c1Cl [Crizotinib] (partner 1 µM)
In short: as §1

BMX-IN-1 + Olaparib = compound: C=CC(=O)Nc1cc(-n2c(=O)ccc3cnc4ccc(-c5ccc(NS(C)(=O)=O)cc5)cc4c32)ccc1C [BMX-IN-1] + O=C(c1cc(Cc2n[nH]c(=O)c3ccccc23)ccc1F)N1CCN(C(=O)C2CC2)CC1 [Olaparib] (partner 8 µM)
In short: as §1

Row | Cell Line | relative viability (BMX-IN-1 + Lapatinib; first compound 0.02 µM) | relative viability (BMX-IN-1 + Lapatinib; first compound 0.2 µM) | relative viability (BMX-IN-1 + Lapatinib; first compound 0.6325 µM) | relative viability (BMX-IN-1 + Lapatinib; first compound 2 µM) | relative viability (Ibrutinib + Pictilisib; first compound 0.005 µM) | relative viability (Ibrutinib + Pictilisib; first compound 0.01581 µM) | relative viability (Ibrutinib + Pictilisib; first compound 0.05 µM) | relative viability (Ibrutinib + Pictilisib; first compound 0.1581 µM) | relative viability (Ibrutinib + Pictilisib; first compound 0.5 µM) | relative viability (Ibrutinib + Crizotinib; first compound 0.005 µM) | relative viability (Ibrutinib + Crizotinib; first compound 0.01581 µM) | relative viability (Ibrutinib + Crizotinib; first compound 0.05 µM) | relative viability (Ibrutinib + Crizotinib; first compound 0.1581 µM) | relative viability (Ibrutinib + Crizotinib; first compound 0.5 µM) | relative viability (BMX-IN-1 + Olaparib; first compound 0.02 µM) | relative viability (BMX-IN-1 + Olaparib; first compound 0.2 µM) | relative viability (BMX-IN-1 + Olaparib; first compound 0.6325 µM) | relative viability (BMX-IN-1 + Olaparib; first compound 2 µM)
1 | NCI-H596 | 0.987 | 1.13 | 1.12 | 0.935 | 0.43 | 0.406 | 0.442 | 0.392 | 0.393 | 0.974 | 0.955 | 0.903 | 0.803 | 0.747 | 0.712 | 0.641 | 0.692 | 0.755
2 | A-427 | 1.21 | 0.995 | 1.17 | 1.06 | 0.553 | 0.623 | 0.719 | 0.405 | 0.743 | 0.89 | 0.87 | 1.03 | 0.875 | 0.832 | 0.709 | 0.766 | 0.979 | 0.783
3 | HCC-44 | 1.07 | 1.28 | 1.22 | 1.11 | 0.593 | 0.467 | 0.527 | 0.599 | 0.694 | 0.813 | 0.782 | 0.801 | 0.866 | 0.743 | 1.02 | 0.994 | 1.03 | 1.07
4 | HCC-827 | 0.189 | 0.203 | 0.193 | 0.206 | 0.916 | 0.909 | 1.02 | 1.08 | 0.458 | 0.89 | 0.923 | 0.927 | 0.94 | 0.184 | 0.597 | 0.635 | 0.652 | 0.629
5 | NCI-H1915 | 1.16 | 1.05 | 1.13 | 0.968 | – | 0.978 | 0.891 | 0.609 | 1.02 | – | 0.858 | 0.92 | 0.921 | 0.897 | 0.267 | 0.27 | 0.263 | 0.246
6 | NCI-H322M | 0.626 | 0.591 | 0.563 | 0.578 | 0.431 | 0.562 | 0.597 | 0.374 | 0.467 | 0.964 | 0.848 | 0.887 | 1.03 | 0.608 | 0.781 | 0.836 | 0.77 | 0.72
7 | IA-LM | 0.925 | 0.902 | 0.994 | 0.867 | 0.203 | 0.231 | 0.312 | 0.411 | 0.22 | 0.75 | 0.8 | 1.11 | 1 | 0.947 | 0.871 | 0.843 | 0.938 | 0.94
8 | EKVX | 0.208 | 0.197 | 0.216 | 0.189 | 0.341 | 0.391 | 0.435 | 0.461 | 0.278 | 0.995 | 0.743 | 1.05 | 0.964 | 0.562 | 0.99 | 0.993 | 0.971 | 0.828
9 | EMC-BAC-2 | 0.985 | 0.997 | 0.991 | 0.887 | 0.43 | 0.521 | 0.604 | 0.525 | 0.522 | 0.79 | 0.679 | 0.731 | 0.813 | 0.726 | 0.514 | 0.49 | 0.512 | 0.494
10 | EBC-1 | 0.243 | 0.181 | 0.206 | 0.168 | 0.31 | 0.436 | 0.378 | 0.456 | 0.321 | 0.199 | 0.21 | 0.205 | 0.188 | 0.162 | 0.734 | 0.689 | 0.779 | 0.762
11 | HCC-15 | 0.933 | 0.955 | 0.985 | 0.984 | 0.646 | 0.678 | 0.731 | 0.361 | 0.711 | 0.889 | 0.785 | 0.873 | 0.828 | 0.837 | 0.645 | 0.827 | 0.706 | 0.787
12 | LXF-289 | 0.982 | 1.01 | 0.957 | 0.983 | 0.733 | 0.724 | 0.802 | 0.794 | 0.758 | 0.948 | 0.804 | 0.807 | 0.784 | 0.791 | 1.32 | 1.19 | 1.12 | 1.14
13 | NCI-H358 | 0.48 | 0.431 | 0.4 | 0.412 | 0.28 | 0.372 | 0.291 | 0.315 | 0.264 | 0.706 | 0.45 | 0.401 | 0.682 | 0.303 | 0.634 | 0.743 | 0.71 | 0.548
14 | NCI-H838 | 1.3 | 1.16 | 1.2 | 1.04 | 0.343 | 0.38 | 0.514 | 0.472 | 0.543 | 0.881 | 0.842 | 0.979 | 0.873 | 0.793 | 0.81 | 0.933 | 0.915 | 0.859
15 | NCI-H520 | 1.04 | 0.903 | 1.05 | 0.838 | 0.25 | 0.262 | 0.258 | 0.183 | 0.254 | 0.725 | 0.578 | 0.727 | 0.704 | 0.861 | 0.323 | 0.368 | 0.301 | 0.273
16 | SW 1573 | 1.31 | 1.29 | 1.24 | 0.701 | 0.416 | 0.466 | 0.478 | 0.414 | 0.503 | 0.87 | 0.807 | 0.803 | 0.986 | 0.77 | 0.592 | 0.49 | 0.433 | 0.343
17 | 201T | 1.03 | 1.04 | 1.05 | 1.05 | 0.581 | 0.704 | 0.66 | 0.616 | 0.598 | 1.03 | 1.02 | 1.03 | 1.04 | 1.04 | 0.84 | 0.904 | 0.844 | 0.83
18 | NCI-H1437 | 0.928 | 0.867 | 0.907 | 0.915 | 0.346 | 0.413 | 0.428 | 0.359 | 0.443 | 0.848 | 0.874 | 0.901 | 1.02 | 0.916 | 0.662 | 0.647 | 0.692 | 0.664
